Assay results reported in patent US20080268013A1, “Polyethylene Oxide Polymers Including Anti-Inflammatory Glycodendrons” (EMORY UNIVERSITY, priority 2005, published 2008).

Columns and labels:
[1] = test system: neutrophil and macrophage recruitment; assay: Thioglycollate induced murine model of peritoneal inflammation; assay type: in vivo, mouse; conditions: C57BL mice
Protocol: Acute inflammation was induced in a mouse model by thioglycollate injection into the peritoneal cavity.
Thioglycollate induced murine model of peritoneal inflammation. Mice (C57BL, male, 6-8 weeks old) were injected intraperitoneally with 2 mL of 3% thioglycollate broth. Five minutes later, animals received intravenous injections of 0.2 mL sterile pyrogen-free saline (S) with and without heparin (H) or analogs (3c) (0.5 mg/mouse with 0.2 ml saline). Mice were sacrificed after 3 hours and peritoneal cells harvested by lavage with 8 mL of ice-cold phosphate buffered saline (PBS) containing 3 mM EDTA. Peritoneal cells were counted and cells stained for 30 minutes at 4° C. with FITC-conjugated rat anti-mouse Gr-1 mAb diluted in PBS containing 2.5% FBS. After washing three times with PBS, FACScan analysis was performed as described by Wang et al. (2002) and was used to sort, count and analyze the percentage of neutrophils and macrophages which were converted to the cell number using the formula N/M=Total cell number X % of NIM, respectively (N:Neutrophil; M: Macrophages). The cells were gated (FACS) expressing a high level of Gr-1 antigen (N) and Mac-1 (M). (See additional ref: Lagasse; E., Weissman; I. J. Immunological Meth. 1996, 197, 139-150). Statistical differences among groups were analyzed by ANOVA method using StatView software.

E-selectin = assay: U937 cell adhesion to immobilized E-selectin; assay type: cell-based; conditions: immobilized E-selectin chimera
Protocol: U937 cell binding to immobilized E-, L- or P-selectin. […] After blocking the plate with 10% BSA in PBS, P-selectin (0.05 μg/well), L-selectin (4 μg/well) or E-selectin (1 μg/well) chimeras were added. After 1 hr, wells were washed with blocking solution. U937 cells were grown in RPMI-1640 medium (containing 10% fetal bovine serum (FBS), 100 U/ml penicillin and 100 μg/ml streptomycin in an atmosphere of 5% CO2 in air and 100% relative humidity. The cells were fluorescently labeled with 10 μM calcein AM in RPMI 1640 medium containing 2.5% FBS for 30 min at 37° C. The cells were collected by low speed centrifugation, washed three times with RPMI 1640 medium, and resuspended at a density of 2×10^6 cells/mL in medium without FBS. Heparin and test compounds, or 10 mM sodium EDTA (negative control) were added at 50 μL/well, and then the fluorescently labeled U937 cell suspension (50 μL/well) was added and incubated for 30 min at room temperature. Non-adherent cells were removed by rinsing the plates three times with PBS, and the number of adherent cells was quantified by measuring the fluorescence intensity at 485 nm after […] 2% Triton X-100 in 0.1 M Tris-HCl, pH 9.5. Raw data were converted to relative fluorescence intensity (RFI) for comparative purposes.

heparin
in vivo activity on inflammatory cell recruitment (in words) [1]: inhibited inflammatory cell recruitment to a similar degree
inhibitory activity toward E-selectin (U937 cell adhesion) (E-selectin): Neither heparin nor 3c exhibited substantial inhibitory activity
